{
  "source": "patent US20150119363A1",
  "about": "“METHODS OF TREATING BACTERIAL INFECTIONS” (Rampex Pharmaceuticals, Inc., priority 2012, published 2015)",
  "key": {"ECL1004 NMC-A": {"tested_on": "ECL1004 NMC-A", "experiment": "Dose titration biapenem potentiation assay (MPC1)", "format": "cell-based, Enterobacter cloacae", "details": "biapenem 1 μg/mL", "how_it_was_run": "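Growth of carbapenemase-expressing strains measured with biapenem held at a sub-inhibitory 1 μg/mL; BLI compounds titrated from a top concentration of 40 μg/mL. MPC1 is the inhibitor concentration that restores growth inhibition by biapenem.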"}, "[1]": {"target": "T1, SME-2 (Serratia marcescens SM1000 lysate) (Serratia marcescens, UniProt P52682)", "T1 construct": "Lysates were prepared from bacteria expressing various β-lactamases as a source of enzymes", "T1 sequence (P52682 28-294 limits assumed)": "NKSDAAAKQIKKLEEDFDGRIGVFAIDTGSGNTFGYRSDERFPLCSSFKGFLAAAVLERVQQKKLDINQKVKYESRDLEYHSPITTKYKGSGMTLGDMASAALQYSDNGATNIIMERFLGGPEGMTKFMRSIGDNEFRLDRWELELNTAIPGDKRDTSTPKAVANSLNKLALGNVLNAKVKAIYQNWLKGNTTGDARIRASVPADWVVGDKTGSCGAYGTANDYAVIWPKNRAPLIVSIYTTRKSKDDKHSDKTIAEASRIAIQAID", "experiment": "Inhibition of biapenem hydrolysis by bacterial lysate", "format": "biochemical", "details": "SM1000 SME-2 lysate; read-out: IC50 (μg/mL) of inhibition of biapenem hydrolysis", "description": "(§1) The activity of β-lactamase inhibitors to inhibit hydrolysis of biapenem was studied. Lysates were prepared from bacteria expressing various β-lactamases as a source of enzymes. Bacterial lysates were prepared as follows. A single colony from the fresh overnight plate was transferred to 5 mL of LB broth and grown to OD600=0.6-0.8. Next, this culture was transferred to 500 mL of LB and grown to OD600=0.7-0.9. Cells were pelleted by centrifugation at 5000 RPM (JA-14 rotor) for 15 minutes at room temperature. The pellet was resuspended in 10 mL of PBS. Five freeze-thaw cycles by putting cells at −20° C. and thawing them at the room temperature were next applied. After the last thaw step cells were spun down at 18K for 30 minutes and the supernatant was collected. This lysate was stored at −20° C.\n(§2) Next, the activity of bacterial lysates was optimized for biapenem cleavage as follows. 50 μl of buffer A (50 mM Sodium Phosphate pH=7; 0.5% glucose, 1 mM MgCl2) was added to each well of 96-well UV-transparent plate. 50 μl of lysate was titrated vertically in 96-well plate column to generate 2-fold lysate dilutions. 100 μl of buffer A was added to each well, placed in plate reader at 37° C. and incubated for 15 minutes. 50 μl of 50 μg/mL solutions of biapenem in buffer A (pre-incubated at 37° C. for 15 minutes) were added to each well. Hydrolysis of biapenem was measured at 296 nm. This experiment was used to determine the optimal lysate dilution which produced a linear curve of relative UV signal that decreased to approximately OD=0.3-0.5 over 1 hour.\n(§3) Finally, the potency of cyclic boronic acid derivative to inhibit the cleavage of biapenem cleavage by bacterial lysates was determined. 100 μl of buffer A (50 mM Sodium Phosphate pH=7; 0.5% glucose, 1 mM MgCl2) was added to each well of 96-well UV-transparent plate. 50 μl of 6× cyclic boronic acid derivative solution in buffer A was titrated vertically in 96-well plate column to generate 3-fold dilutions. 50 μl of diluted lysate in buffer A (optimal dilution is determined in experiment above) was added, and the plate was incubated in the plate reader at 37° C. for 15 minutes. 50 μl of 50 μg/mL solution of biapenem in buffer A (pre-incubated at 37° C. for 15 minutes) were next added to each well and hydrolysis of biapenem was recorded at 296 nm. EC50 of inhibition was determined by plotting the rate of biapenem cleavage vs. cyclic boronic acid derivative concentration."}, "[2]": {"target": "T2, KPC-3 (Escherichia coli EC1007 lysate) (Klebsiella pneumoniae, UniProt Q9F663, H272Y)", "T2 construct": "Lysates were prepared from bacteria expressing various β-lactamases as a source of enzymes; endogenous in cells; host or cells: Escherichia coli strain EC1007 (freeze-thaw lysate supernatant)", "T2 sequence (Q9F663 25-293 H272Y)": "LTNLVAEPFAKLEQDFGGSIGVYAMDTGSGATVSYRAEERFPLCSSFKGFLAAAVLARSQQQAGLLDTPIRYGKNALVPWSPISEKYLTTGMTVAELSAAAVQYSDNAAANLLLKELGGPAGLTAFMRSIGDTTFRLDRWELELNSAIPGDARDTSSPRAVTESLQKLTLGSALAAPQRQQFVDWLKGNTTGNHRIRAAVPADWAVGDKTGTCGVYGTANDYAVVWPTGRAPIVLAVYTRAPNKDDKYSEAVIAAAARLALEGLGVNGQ", "experiment": "Inhibition of biapenem hydrolysis by bacterial lysate", "format": "biochemical", "details": "EC1007 KPC-3 lysate; read-out: IC50 (μg/mL) of inhibition of biapenem hydrolysis", "description": "as §1, §2, §3"}, "[3]": {"target": "T3, KPC-2 (Klebsiella pneumoniae KP1004 lysate) (Klebsiella pneumoniae, UniProt Q9F663)", "T3 construct": "Lysates were prepared from bacteria expressing various β-lactamases as a source of enzymes; endogenous in cells; host or cells: Klebsiella pneumoniae strains KP1004 and KP1008 (freeze-thaw lysate supernatants)", "T3 sequence (Q9F663 25-293 limits assumed)": "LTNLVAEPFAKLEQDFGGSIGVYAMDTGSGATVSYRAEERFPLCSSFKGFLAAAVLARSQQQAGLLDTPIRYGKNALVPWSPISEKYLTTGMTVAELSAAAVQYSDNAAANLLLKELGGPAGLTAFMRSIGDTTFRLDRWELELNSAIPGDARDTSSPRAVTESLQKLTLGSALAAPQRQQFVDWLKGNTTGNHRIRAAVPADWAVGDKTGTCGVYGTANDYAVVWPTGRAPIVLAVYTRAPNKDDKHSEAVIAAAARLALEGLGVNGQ", "experiment": "Inhibition of biapenem hydrolysis by bacterial lysate", "format": "biochemical", "description": "as §1, §2, §3"}, "[4]": {"target": "T4, KPC-2 (Klebsiella pneumoniae KP1008 lysate) (Klebsiella pneumoniae, UniProt Q9F663)", "T4 construct": "Lysates were prepared from bacteria expressing various β-lactamases as a source of enzymes; endogenous in cells; host or cells: Klebsiella pneumoniae strains KP1004 and KP1008 (freeze-thaw lysate supernatants)", "T4 sequence (Q9F663 25-293 limits assumed)": "as above", "experiment": "Inhibition of biapenem hydrolysis by bacterial lysate", "format": "biochemical", "description": "as §1, §2, §3"}, "[5]": {"tested_on": "Klebsiella pneumonia (KP1004) KPC-2", "experiment": "Biapenem MIC at various concentrations of Compound 5", "format": "cell-based", "details": "KP1004 KPC-2"}, "KP1004 KPC-2": {"tested_on": "KP1004 KPC-2", "experiment": "Dose titration biapenem potentiation assay (MPC1)", "format": "cell-based, Klebsiella pneumoniae", "details": "biapenem 1 μg/mL"}, "[6]": {"tested_on": "Klebsiella pneumonia (KPM1097) NDM-1, KPC-2", "experiment": "Biapenem MIC at various concentrations of Compound 5", "format": "cell-based", "details": "KPM1097 NDM-1, KPC-2"}, "[7]": {"tested_on": "E. coli EC1061 (NDM-1 CMY-6)", "experiment": "Aztreonam/Tigemonam MIC at various concentrations of BLI", "format": "cell-based", "details": "EC1061", "description": "MIC values for each bacterial strain were measured for each antimicrobial compound at various concentrations of each BLI. […]"}},
  "data": [
    {"compound": "O=C(O)C[C@@H]1CC[C@H](NC(=O)Cc2cccs2)B(O)O1", "note": "[Compound 5, 2-((3R,6S)-2-hydroxy-3-(2-(thiophen-2-yl)acetamido)-1,2-oxaborinan-6-yl)acetic acid]", "values": [
      {"measurement": "BPM MPC1 ECL1004 NMC-A", "setting": "ECL1004 NMC-A", "result": "X (X = MPC1 of less than 1 μg/mL.)"},
      {"measurement": "IC50", "setting": "[1]", "result": "< 337", "unit": "nM"},
      {"measurement": "IC50", "setting": "[2]", "result": "< 337", "unit": "nM"},
      {"measurement": "IC50", "setting": "[3]", "result": "< 337", "unit": "nM"},
      {"measurement": "IC50", "setting": "[4]", "result": "337 to 3370", "unit": "nM"},
      {"measurement": "Biapenem MIC", "setting": "[5]; Compound 5 0.31 μg/ml", "result": 0.5, "unit": "µg/mL"},
      {"measurement": "Biapenem MIC", "setting": "[5]; Compound 5 0.63 μg/ml", "result": 0.25, "unit": "µg/mL"},
      {"measurement": "Biapenem MIC", "setting": "[5]; Compound 5 5 μg/ml", "result": 0.06, "unit": "µg/mL"},
      {"measurement": "Biapenem MIC (μg/ml)", "setting": "[5]; Compound 5 10 μg/ml", "result": "≦0.03 μg/ml"},
      {"measurement": "Biapenem MIC (μg/ml)", "setting": "[5]; Compound 5 20 μg/ml", "result": "≦0.03 μg/ml"},
      {"measurement": "BPM MPC1 KP1004 KPC-2", "setting": "KP1004 KPC-2", "result": "X (X = MPC1 of less than 1 μg/mL.)"},
      {"measurement": "Biapenem MIC", "setting": "[6]; Compound 5 0.31 μg/ml", "result": 2, "unit": "µg/mL"},
      {"measurement": "Biapenem MIC", "setting": "[6]; Compound 5 0.63 μg/ml", "result": 1, "unit": "µg/mL"},
      {"measurement": "Biapenem MIC", "setting": "[6]; Compound 5 5 μg/ml", "result": 1, "unit": "µg/mL"},
      {"measurement": "Biapenem MIC", "setting": "[6]; Compound 5 10 μg/ml", "result": 1, "unit": "µg/mL"},
      {"measurement": "Biapenem MIC", "setting": "[6]; Compound 5 20 μg/ml", "result": 1, "unit": "µg/mL"},
      {"measurement": "Biapenem MIC", "setting": "[6]; Compound 5 […]", "result": 1, "unit": "µg/mL"},
      {"measurement": "Aztreonam MIC (μg/ml) in the presence of BLI", "setting": "[7]; Compound 5 0.31 μg/ml", "result": 4, "unit": "µg/mL"},
      {"measurement": "Aztreonam MIC (μg/ml) in the presence of BLI", "setting": "[7]; Compound 5 0.63 μg/ml", "result": 4, "unit": "µg/mL"},
      {"measurement": "Aztreonam MIC (μg/ml) in the presence of BLI", "setting": "[7]; Compound 5 5 μg/ml", "result": 0.5, "unit": "µg/mL"},
      {"measurement": "Aztreonam MIC (μg/ml) in the presence of BLI", "setting": "[7]; Compound 5 10 μg/ml", "result": 0.5, "unit": "µg/mL"},
      {"measurement": "Aztreonam MIC (μg/ml) in the presence of BLI", "setting": "[7]; Compound 5 20 μg/ml", "result": 0.5, "unit": "µg/mL"},
      {"measurement": "Aztreonam MIC (μg/ml) in the presence of BLI", "setting": "[7]; Compound 5 […]", "result": 2, "unit": "µg/mL"}
    ]}
  ]
}
